Data on 26 molecules can be found in US9637520B2, “Template-fixed peptidomimetics with CXCR7 modulating activity” (POLYPHOR AG, priority 2010, dated 2017).

The target of the experiment is T1, CXCR7 (Homo sapiens, UniProt P25106).
T1 construct: host or cells: CHO (PathHunter CHO-CXCR7 β-arrestin cells)
Put plainly: CXCR7 β-arrestin recruitment assay (PathHunter CHO-CXCR7, DiscoverX), agonistic assay. In kind it is cell-based. As to conditions: agonistic assay; CHO CXCR7 β-arrestin cells; 90 min at 37° C.; chemiluminescence; read-out: β-Arrestin EC50. In short, it runs like this:
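CHO cells co-expressing CXCR7 and β-arrestin (PathHunter), seeded overnight, then exposed to serially diluted compounds at 1% DMSO for 90 min at 37 °C; SDF-1 served as positive agonist control. Enzyme-fragment complementation detection developed 90 min at room temperature, read by chemiluminescence.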
A general note: Arrestin recruitment assays detect the binding of arrestin to an activated receptor.

Starred links: 1 amine or outer side, 2 acyl side, 3 side chain; linkers in the order of their positions; H or OH if unused. Non-standard residues stand in square brackets, D forms with d. Residues, ends and D or L forms follow the SMILES beside them. *: point of attachment. Arg(Nω,Nω'-propylene) = N[C@@H](CCCNC1=NCCCN1)C(=O)O; Phe(4-CF3) = N[C@@H](Cc1ccc(C(F)(F)F)cc1)C(=O)O; dPro(cis-4-NH2) = N[C@H]1CN[C@@H](C(=O)O)C1; X1 = O=C([C@H](CCCNCc1ccccn1)N[*:1])[*:2]; 1Nal = N[C@@H](Cc1cccc2ccccc12)C(=O)O; 2Nal = N[C@@H](Cc1ccc2ccccc2c1)C(=O)O; Pro(3S-OH) = O=C(O)[C@H]1NCC[C@@H]1O; cisHyp = O=C(O)[C@@H]1C[C@H](O)CN1; dCit = NC(=O)NCCC[C@@H](N)C(=O)O; hArg = N=C(N)NCCCC[C@H](N)C(=O)O; Tic = O=C(O)[C@@H]1Cc2ccccc2CN1; dTic = O=C(O)[C@H]1Cc2ccccc2CN1; Cha = N[C@@H](CC1CCCCC1)C(=O)O; aThr = C[C@H](O)[C@H](N)C(=O)O; dPip = O=C(O)[C@H]1CCCCN1; Orn = NCCC[C@H](N)C(=O)O; Dab = NCC[C@H](N)C(=O)O; Bn = c1ccc(C*)cc1

T1 sequence (P25106 whole entry): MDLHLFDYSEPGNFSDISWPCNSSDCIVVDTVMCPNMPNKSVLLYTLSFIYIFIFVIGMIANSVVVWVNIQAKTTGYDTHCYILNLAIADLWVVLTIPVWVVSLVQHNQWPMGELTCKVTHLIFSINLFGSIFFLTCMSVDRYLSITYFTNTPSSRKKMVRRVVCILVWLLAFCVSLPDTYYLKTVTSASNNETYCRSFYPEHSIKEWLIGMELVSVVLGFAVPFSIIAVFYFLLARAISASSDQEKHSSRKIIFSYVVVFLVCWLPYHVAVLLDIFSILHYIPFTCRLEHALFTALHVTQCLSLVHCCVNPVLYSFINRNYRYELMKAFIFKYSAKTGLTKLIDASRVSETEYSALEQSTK

Turning to `CC[C@H](C)[C@@H]1NC(=O)[C@H]([C@@H](C)O)NC(=O)[C@H]2CCCN2C(=O)[C@H](Cc2c[nH]c3ccccc23)NC(=O)[C@H](CCCCNC(=N)N)NC(=O)[C@@H](CCCNC(=N)N)NC1=O` [compound 66, cyclo(-Ile-^DArg-hArg-Trp-^DPro-Thr-)] (cyclo(I[dR][hArg]W[dP]T)), the EC50 (commonly the concentration giving half of the maximal effect) came out at 0.011 ± 0.0045 µM.

Take `CC[C@H](C)[C@@H]1NC(=O)[C@H]([C@@H](C)O)NC(=O)[C@H]2CCCN2C(=O)[C@H](Cc2cccc3ccccc23)NC(=O)[C@H](CCCNC(=N)N)NC(=O)[C@@H](CCCNC(=N)N)NC1=O` [compound 16, cyclo(-Ile-^DArg-Arg-1Nal-^DPro-Thr-)] (cyclo([1Nal][dP]TI[dR]R)): the EC50 is 0.0179 ± 0.0026 µM.

For `CC[C@H](C)[C@@H]1NC(=O)[C@@H]2[C@@H](O)CCN2C(=O)[C@H]2CCCCN2C(=O)[C@H](Cc2c[nH]c3ccccc23)NC(=O)[C@H](CCCNC(=N)N)NC(=O)[C@@H](CCCNC(=N)N)NC1=O` [Ex. 54, cyclo(-Ile-^DArg-Arg-Trp-^DPip-Pro((3S)OH)—)] (cyclo(I[dR]RW[dPip][Pro(3S-OH)])), the EC50 amounted to 0.0082 ± 0.0034 µM.

For `CC[C@H](C)[C@@H]1NC(=O)[C@H]([C@@H](C)O)NC(=O)[C@H]2CCCN2C(=O)[C@H](Cc2c[nH]c3ccccc23)NC(=O)[C@H](CCCNC2=NCCCN2)NC(=O)[C@@H](CCCNC(=N)N)NC1=O` [Ex. 71, cyclo(-Ile-^DArg-Orn(A56)-Trp-^DPro-Thr-)] (cyclo(I[dR][Arg(Nω,Nω'-propylene)]W[dP]T)), the EC50 was 0.0032 ± 0.0027 µM.

Consider `O=C1N[C@H](Cc2ccccc2)C(=O)N[C@@H](Cc2c[nH]c3ccccc23)C(=O)N[C@@H](CCCNC2=NCCCN2)C(=O)N2CCCC[C@@H]2C(=O)N2CC[C@H](O)[C@H]2C(=O)N[C@H]1Cc1c[nH]c2ccccc12` [Ex. 73, cyclo(-Trp-^DPhe-Trp-Orn(A56)-^DPip-Pro((3S)OH)—)] (cyclo(W[dF]W[Arg(Nω,Nω'-propylene)][dPip][Pro(3S-OH)])), for which the EC50 was determined as 0.014 ± 0.0001 µM.

Take `CC[C@H](C)[C@@H]1NC(=O)[C@H]([C@@H](C)O)NC(=O)[C@H]2CCCCN2C(=O)[C@H](Cc2c[nH]c3ccccc23)NC(=O)[C@H](CCCNC(=N)N)NC(=O)[C@@H](CCCNC(=N)N)NC1=O` [compound 14, cyclo(-Ile-^DArg-Arg-Trp-^DPip-Thr-)] (cyclo(I[dR]RW[dPip]T)): the EC50 is 0.0001 µM.

In the case of `CC[C@H](C)[C@@H]1NC(=O)[C@H]([C@@H](C)O)NC(=O)[C@H]2CCCN2C(=O)[C@H](Cc2c[nH]c3ccccc23)NC(=O)[C@H](CCN)NC(=O)[C@@H](CCCNC(=N)N)NC1=O` [Ex. 4, cyclo(-Ile-^DArg-Dab-Trp-^DPro-Thr-)] (cyclo([Dab]W[dP]TI[dR])), the EC50 is 0.087 ± 0.0841 µM.

For the molecule `CC[C@H](C)[C@@H]1NC(=O)[C@@H]2[C@@H](O)CCN2C(=O)[C@H]2CCCN2C(=O)[C@H](Cc2c[nH]c3ccccc23)NC(=O)[C@H](CCCNC(=N)N)NC(=O)[C@@H](CCCNC(=N)N)NC1=O` [Ex. 21, cyclo(-Ile-^DArg-Arg-Trp-^DPro-Pro((3S)OH)—)] (cyclo(I[dR]RW[dP][Pro(3S-OH)])), the EC50 is 0.123 ± 0.0852 µM.

On to `C[C@@H]1NC(=O)[C@@H]2Cc3ccccc3CN2C(=O)[C@H]2C[C@@H](N)CN2C(=O)[C@H](CCCNC(=N)N)NC(=O)[C@H](Cc2c[nH]c3ccccc23)NC(=O)[C@@H](Cc2ccccc2)NC1=O` [compound 27, cyclo(-Ala-^DPhe-Trp-Arg-^DPro((4R)NH2)-Tic-)] (cyclo(A[dF]WR[dPro(cis-4-NH2)][Tic])), for which the EC50 turned out to be 0.322 ± 0.0482 µM.

Regarding `CC(C)[C@@H]1NC(=O)[C@H]([C@@H](C)O)NC(=O)[C@H]2CCCN2C(=O)[C@H](Cc2c[nH]c3ccccc23)NC(=O)[C@H](CCCNC(=N)N)NC(=O)[C@@H](CCCNC(=N)N)NC1=O` [compound 57, cyclo(-Val-^DArg-Arg-Trp-^DPro-Thr-)] (cyclo(RW[dP]TV[dR])), the EC50 amounted to 0.271 ± 0.0002 µM.

Regarding `CC[C@H](C)[C@@H]1NC(=O)[C@H]([C@@H](C)O)NC(=O)[C@H]2CCCN2C(=O)[C@H](Cc2c[nH]c3ccccc23)NC(=O)[C@H](CCCNC(=N)N)NC(=O)[C@@H](CCCNC(N)=O)NC1=O` [compound 13, cyclo(-Ile-^DCit-Arg-Trp-^DPro-Thr-)] (cyclo(I[dCit]RW[dP]T)), the EC50 came out at 0.473 ± 0.0689 µM.

Regarding `CC[C@H](C)[C@@H]1NC(=O)[C@H]([C@@H](C)O)NC(=O)[C@H]2CCCN2C(=O)[C@H](Cc2ccc(C(F)(F)F)cc2)NC(=O)[C@H](CCCNC(=N)N)NC(=O)[C@@H](CCCNC(=N)N)NC1=O` [Ex. 72, cyclo(-Ile-^DArg-Arg-Phe(4CF3)-^DPro-Thr-)] (cyclo(I[dR]R[Phe(4-CF3)][dP]T)), the EC50 was found to be 0.0045 ± 0.0011 µM.

For `N=C(N)NCCC[C@@H]1NC(=O)[C@H](Cc2c[nH]c3ccccc23)NC(=O)[C@@H](Cc2ccccc2)NC(=O)[C@H](Cc2c[nH]c3ccccc23)NC(=O)[C@@H]2Cc3ccccc3CN2C(=O)[C@H]2C[C@@H](N)CN2C1=O` [compound 26, cyclo(-Trp-^DPhe-Trp-Arg-^DPro((4R)NH2)-Tic-)] (cyclo(R[dPro(cis-4-NH2)][Tic]W[dF]W)), the EC50 is 0.0061 ± 0.0033 µM.

For the molecule `CC[C@H](C)[C@@H]1NC(=O)[C@H]([C@@H](C)O)NC(=O)[C@H]2CCCN2C(=O)[C@H](Cc2c[nH]c3ccccc23)NC(=O)[C@H](CCCN)NC(=O)[C@@H](CCCNC(=N)N)NC1=O` [compound 65, cyclo(-Ile-^DArg-Orn-Trp-^DPro-Thr-)] (cyclo(I[dR][Orn]W[dP]T)), the EC50 was found to be 0.816 ± 0.0588 µM.

For the molecule `CC[C@H](C)[C@@H]1NC(=O)[C@H]([C@@H](C)O)NC(=O)[C@H]2CCCN2C(=O)[C@H](Cc2c[nH]c3ccccc23)NC(=O)[C@H](CCCNC(=N)N)NC(=O)[C@@H]([C@H](C)O)NC1=O` [Ex. 7, cyclo(-Ile-^DThr-Arg-Trp-^DPro-Thr-)] (cyclo(I[dT]RW[dP]T)), the EC50 is 0.0532 ± 0.0358 µM.

`NCCC[C@@H]1NC(=O)[C@H](Cc2c[nH]c3ccccc23)NC(=O)[C@@H](Cc2ccccc2)NC(=O)[C@H](Cc2c[nH]c3ccccc23)NC(=O)[C@@H]2Cc3ccccc3CN2C(=O)[C@H]2C[C@@H](N)CN2C1=O` [Ex. 29, cyclo(-Trp-^DPhe-Trp-Orn-^DPro((4R)NH2)-Tic-)] (cyclo([Orn][dPro(cis-4-NH2)][Tic]W[dF]W)): the EC50 is 0.0261 ± 0.0167 µM.

With `CC[C@H](C)[C@@H]1NC(=O)[C@H]([C@H](C)O)NC(=O)[C@H]2CCCN2C(=O)[C@H](Cc2c[nH]c3ccccc23)NC(=O)[C@H](CCCNC(=N)N)NC(=O)[C@@H](CCCNC(=N)N)NC1=O` [compound 9, cyclo(-Ile-^DArg-Arg-Trp-^DPro-alloThr-)] (cyclo(I[dR]RW[dP][aThr])), the EC50 is 0.292 ± 0.101 µM.

Regarding `N=C(N)NCCC[C@@H]1NC(=O)[C@@H]2C[C@H](OCc3ccccc3)CN2C(=O)[C@H]2CCCN2C(=O)[C@H](CCCNC(=N)N)NC(=O)[C@H](Cc2c[nH]c3ccccc23)NC(=O)[C@@H](Cc2ccccc2)NC1=O` [Ex. 48, cyclo(-Arg-^DPhe-Trp-Arg-^DPro-(4S)-Hyp(Bn)-)] (cyclo(R[dF]WR[dP][cisHyp](Bn))), the EC50 is 0.0769 ± 0.0247 µM.

For `C[C@@H](O)[C@@H]1NC(=O)[C@H]2CCCN2C(=O)[C@H](Cc2c[nH]c3ccccc23)NC(=O)[C@H](CCCNC(=N)N)NC(=O)[C@@H](CCCNC(=N)N)NC(=O)[C@H](CC2CCCCC2)NC1=O` [compound 62, cyclo(-Cha-^DArg-Arg-Trp-^DPro-Thr-)] (cyclo([Cha][dR]RW[dP]T)), the EC50 is 0.0377 ± 0.0185 µM.

As to `CC[C@H](C)[C@@H]1NC(=O)[C@H]([C@@H](C)O)NC(=O)[C@H]2CCCN2C(=O)[C@H](Cc2c[nH]c3ccccc23)NC(=O)[C@H](CCCNC(=N)N)NC(=O)[C@@H](CCCNC(=N)N)NC1=O` [compound 18, cyclo(-Ile-^DArg-Arg-Trp-^DPro-Thr-)] (cyclo(I[dR]RW[dP]T)), the concentration giving a half-maximal response (EC50) worked out at 0.0067 ± 0.0051 µM.

Turning to `CC[C@H](C)[C@@H]1NC(=O)[C@H]([C@@H](C)O)NC(=O)[C@H]2C[C@@H](N)CN2C(=O)[C@H](Cc2c[nH]c3ccccc23)NC(=O)[C@H](CCCNC(=N)N)NC(=O)[C@@H](CCCNC(=N)N)NC1=O` [Ex. 56, cyclo(-Ile-^DArg-Arg-Trp-^DPro((4R)NH2)-Thr-)] (cyclo(I[dR]RW[dPro(cis-4-NH2)]T)), the EC50 came out at 0.949 ± 0.0753 µM.

As for `CC[C@H](C)[C@@H]1NC(=O)[C@H]([C@@H](C)O)NC(=O)[C@H]2Cc3ccccc3CN2C(=O)[C@H](Cc2c[nH]c3ccccc23)NC(=O)[C@H](CCCNC(=N)N)NC(=O)[C@@H](CCCNC(=N)N)NC1=O` [compound 67, cyclo(-Ile-^DArg-Arg-Trp-^DTic-Thr-)] (cyclo(I[dR]RW[dTic]T)), the EC50 is 0.0142 ± 0.0052 µM.

As for `N=C(N)NCCCC[C@@H]1NC(=O)[C@@H]2Cc3ccccc3CN2C(=O)[C@H]2C[C@@H](N)CN2C(=O)[C@H](CCCNC(=N)N)NC(=O)[C@H](Cc2c[nH]c3ccccc23)NC(=O)[C@@H](Cc2ccccc2)NC1=O` [compound 35, cyclo(-hArg-^DPhe-Trp-Arg-^DPro((4R)NH2)-Tic-)] (cyclo(R[dPro(cis-4-NH2)][Tic][hArg][dF]W)), the EC50 is 0.0122 ± 0.0054 µM.

Take `CC[C@H](C)[C@@H]1NC(=O)[C@H]([C@@H](C)O)NC(=O)[C@H]2CCCN2C(=O)[C@H](Cc2c[nH]c3ccccc23)NC(=O)[C@H](CCCNCc2ccccn2)NC(=O)[C@@H](CCCNC(=N)N)NC1=O` [compound 70, cyclo(-Ile-^DArg-Orn(Ar4)-Trp-^DPro-Thr-)] (cyclo(I[dR][X1]W[dP]T)): the EC50 is 0.0046 ± 0.0008 µM.

As for `CC[C@H](C)[C@@H]1NC(=O)[C@H]([C@@H](C)O)NC(=O)[C@H]2CCCN2C(=O)[C@H](Cc2ccc3ccccc3c2)NC(=O)[C@H](CCCNC(=N)N)NC(=O)[C@@H](CCCNC(=N)N)NC1=O` [compound 15, cyclo(-Ile-^DArg-Arg-2Nal-^DPro-Thr-)] (cyclo([2Nal][dP]TI[dR]R)), the EC50 worked out at 0.0004 ± 0.0001 µM.

On to `CC[C@H](C)[C@@H]1NC(=O)[C@H]([C@@H](C)O)NC(=O)[C@H]2CCCN2C(=O)[C@H](Cc2ccccc2)NC(=O)[C@H](CCCNC(=N)N)NC(=O)[C@@H](CCCNC(=N)N)NC1=O` [Ex. 6, cyclo(-Ile-^DArg-Arg-Phe-^DPro-Thr-)] (cyclo(F[dP]TI[dR]R)), for which the EC50 turned out to be 0.0464 ± 0.0579 µM.
